Laboratory results taken from ChEMBL document CHEMBL1201862, “PubChem BioAssay data set” (2004).
Counter-ions that a name gives are not always drawn.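 A five-concentration, 48-hour dose response in 96-well plates underlies each endpoint, interpolated linearly between surrounding concentrations. Here, GI50 denotes the concentration required for 50% inhibition of growth.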 The source made the active and inactive calls. No stated cut-off is given here; in the data, active = GI50 up to about 1.1 µM and inactive = higher.

Legend:
Experiment in all cases: NCI anticancer screen, dose series, 48 h
HCT-116 = system: HCT-116
SK-MEL-2 = system: SK-MEL-2
SK-MEL-5 = system: SK-MEL-5
HOP-92 = system: HOP-92
OVCAR-5 = system: OVCAR-5
SNB-75 = system: SNB-75
EKVX = system: EKVX
PC-3 = system: PC-3
SF-268 = system: SF-268
HOP-62 = system: HOP-62
CAKI-1 = system: CAKI-1
SF-539 = system: SF-539
LOX IMVI = system: LOX IMVI
UACC-62 = system: UACC-62
Malme-3M = system: Malme-3M
OVCAR-3 = system: OVCAR-3
CCRF-CEM = system: CCRF-CEM
OVCAR-8 = system: OVCAR-8
HCT-15 = system: HCT-15
NCI-H460 = system: NCI-H460

| Structure (SMILES) | GI50 (HCT-116) | GI50 (SK-MEL-2) | GI50 (SK-MEL-5) | GI50 (HOP-92) | GI50 (OVCAR-5) | GI50 (SNB-75) | GI50 (EKVX) | GI50 (PC-3) | GI50 (SF-268) | GI50 (HOP-62) | GI50 (CAKI-1) | GI50 (SF-539) | GI50 (LOX IMVI) | GI50 (UACC-62) | GI50 (Malme-3M) | GI50 (OVCAR-3) | GI50 (CCRF-CEM) | GI50 (OVCAR-8) | GI50 (HCT-15) [µM] | GI50 (NCI-H460) |
| --- | --- | --- | --- | --- | --- | --- | --- | --- | --- | --- | --- | --- | --- | --- | --- | --- | --- | --- | --- | --- |
| C[n+]1c2ccccc2c(CNC(CCC(N)=O)C(=O)O)c2ccccc21 (stereo not given) | 0.302 µM (active) | 4.76 µM (inactive) | 1.99 µM (inactive) | 0.948 µM (active) | 9.1 µM (inactive) | 5.22 µM (inactive) | 6.75 µM (inactive) | 5.61 µM (inactive) | 1.77 µM (inactive) | 4.94 µM (inactive) | 2.36 µM (inactive) | 2.34 µM (inactive) | 1.94 µM (inactive) | 2.23 µM (inactive) | 4.44 µM (inactive) | 2.31 µM (inactive) | 0.366 µM (active) | 3.39 µM (inactive) | 1.24 | 3.72 µM (inactive) |
| COc1ccc(/N=C2\C(=S)N(c3ccc(OC)cc3)/C(=N/S(=O)(=O)c3ccccc3)N2c2ccccc2)cc1 | 6.64 µM (inactive) | 7.64 µM (inactive) | 4.57 µM (inactive) | 7.01 µM (inactive) | 17.3 µM (inactive) | 17.3 µM (inactive) | 16.4 µM (inactive) | 4.67 µM (inactive) | 8.87 µM (inactive) | > 35.3 µM (inactive) | 13.2 µM (inactive) | 9.12 µM (inactive) | 3.59 µM (inactive) | 6.07 µM (inactive) | 15.1 µM (inactive) | 5.5 µM (inactive) | 2.59 µM (inactive) | 3.95 µM (inactive) | 5.75 | 23.8 µM (inactive) |
| OCCCCCNc1nc(O)c2[nH]cnc2n1 | > 100 µM (inactive) | > 100 µM (inactive) | > 100 µM (inactive) | > 100 µM (inactive) | > 100 µM (inactive) | > 100 µM (inactive) | > 100 µM (inactive) | > 100 µM (inactive) | > 100 µM (inactive) | > 100 µM (inactive) | > 100 µM (inactive) | 8.17 µM (inactive) | > 100 µM (inactive) | > 100 µM (inactive) | > 100 µM (inactive) | > 100 µM (inactive) | > 100 µM (inactive) | > 100 µM (inactive) | > 100 | > 100 µM (inactive) |
| COC(OC)C1OCC(n2cc(F)c(=O)[nH]c2=O)C1O (stereo not given) | > 100 µM (inactive) | > 100 µM (inactive) | > 100 µM (inactive) | > 100 µM (inactive) | > 100 µM (inactive) | > 100 µM (inactive) | > 100 µM (inactive) | > 100 µM (inactive) | > 100 µM (inactive) | > 100 µM (inactive) | > 100 µM (inactive) | > 100 µM (inactive) | > 100 µM (inactive) | > 100 µM (inactive) | > 100 µM (inactive) | > 100 µM (inactive) | > 100 µM (inactive) | > 100 µM (inactive) | > 100 | > 100 µM (inactive) |
| COc1ccc(N2C(=O)CS(=O)(=O)C2c2cccc(Oc3ccccc3)c2)cc1 (stereo not given) | 2.17 µM (inactive) | 3.56 µM (inactive) | 4.57 µM (inactive) | 7.52 µM (inactive) | 7.73 µM (inactive) | 4.28 µM (inactive) | 9.91 µM (inactive) | 3.65 µM (inactive) | 4.98 µM (inactive) | 7.53 µM (inactive) | 2.72 µM (inactive) | 3.54 µM (inactive) | 4.4 µM (inactive) | 2.21 µM (inactive) | 7.74 µM (inactive) | 4.03 µM (inactive) | 5.25 µM (inactive) | 4.08 µM (inactive) | 3.33 | 2.61 µM (inactive) |
| CN(C)CCNC(=O)C(C)(C)Oc1ccc(C(=O)c2ccc(Cl)cc2)cc1Cl | 7.4 µM (inactive) | 18 µM (inactive) | 2.25 µM (inactive) | 6 µM (inactive) | 15.1 µM (inactive) | 11.5 µM (inactive) | 11.2 µM (inactive) | 11.5 µM (inactive) | 13.7 µM (inactive) | 11.5 µM (inactive) | 13.1 µM (inactive) | 9.46 µM (inactive) | 7.11 µM (inactive) | 2.04 µM (inactive) | 5.01 µM (inactive) | 12.6 µM (inactive) | 33.4 µM (inactive) | 11.8 µM (inactive) | 3.3 | 7.98 µM (inactive) |
| NNc1ccccc1Cl | > 100 µM (inactive) | > 100 µM (inactive) | 30.5 µM (inactive) | > 100 µM (inactive) | > 100 µM (inactive) | > 100 µM (inactive) | > 100 µM (inactive) | 69.2 µM (inactive) | > 100 µM (inactive) | > 100 µM (inactive) | 30.9 µM (inactive) | > 100 µM (inactive) | > 100 µM (inactive) | 23.4 µM (inactive) | > 100 µM (inactive) | 38.7 µM (inactive) | 43.1 µM (inactive) | > 100 µM (inactive) | > 100 | 41.4 µM (inactive) |
| CC(=O)N(O)CCCCCNC(=O)CCC(=O)N(O)CCCCCNC(=O)CCC(=O)N(O)CCCCCN [DEFEROXAMINE HYDROCHLORIDE] | 14 µM (inactive) | > 92.7 µM (inactive) | 21.7 µM (inactive) | > 100 µM (inactive) | 12.5 µM (inactive) | > 100 µM (inactive) | 29 µM (inactive) | > 73.6 µM (inactive) | 24.9 µM (inactive) | 18.4 µM (inactive) | 42.4 µM (inactive) | 30.1 µM (inactive) | 13.5 µM (inactive) | 31.6 µM (inactive) | 55.1 µM (inactive) | 20.9 µM (inactive) | 4.48 µM (inactive) | 38.4 µM (inactive) | 16.8 | 6.53 µM (inactive) |
| O=c1c2ccccc2n2nnc3ccc(NCCCNCCNCCCNc4ccc5nnn6c7ccccc7c(=O)c4c56)c1c32 | 0.207 µM (active) | > 50 µM (inactive) | > 50 µM (inactive) | > 10.6 µM (inactive) | 6.44 µM (inactive) | 7.89 µM (inactive) | 7.03 µM (inactive) | 3.21 µM (inactive) | 1.79 µM (inactive) | 2.99 µM (inactive) | 3.86 µM (inactive) | 0.724 µM (active) | 0.566 µM (active) | 14.1 µM (inactive) | 5.83 µM (inactive) | 6.35 µM (inactive) | 0.448 µM (active) | 1.28 µM (inactive) | 3.33 | 0.505 µM (active) |
| CCCc1c(OC)c(=O)c2c(O)cc(OC)c3c4c(OC)cc(O)c5c(=O)c(OC)c(CCC)c(c1c23)c54 | 2.63 µM (inactive) | 6.64 µM (inactive) | 3.29 µM (inactive) | 5.69 µM (inactive) | 10.4 µM (inactive) | 1.59 µM (inactive) | 2.58 µM (inactive) | 2.44 µM (inactive) | 5 µM (inactive) | 6.47 µM (inactive) | 4.17 µM (inactive) | 1.49 µM (inactive) | 1.63 µM (inactive) | 10.3 µM (inactive) | 2.43 µM (inactive) | 3.47 µM (inactive) | 1.26 µM (inactive) | 0.944 µM (active) | 2.9 | 3.16 µM (inactive) |
| O/N=C1/CCCc2nonc21 | > 100 µM (inactive) | > 100 µM (inactive) | > 100 µM (inactive) | > 100 µM (inactive) | > 100 µM (inactive) | > 100 µM (inactive) | > 100 µM (inactive) | > 100 µM (inactive) | > 100 µM (inactive) | > 100 µM (inactive) | > 100 µM (inactive) | > 100 µM (inactive) | > 100 µM (inactive) | > 100 µM (inactive) | > 100 µM (inactive) | > 100 µM (inactive) | > 100 µM (inactive) | > 100 µM (inactive) | > 100 | > 100 µM (inactive) |
| c1ccc(CNCCCNCCCCNCCCNCc2ccccc2)cc1 | 2.94 µM (inactive) | 14.7 µM (inactive) | 7.85 µM (inactive) | 1.42 µM (inactive) | 5.22 µM (inactive) | 8.91 µM (inactive) | 9.42 µM (inactive) | 4.88 µM (inactive) | 12.2 µM (inactive) | 4.15 µM (inactive) | 10.3 µM (inactive) | 1.76 µM (inactive) | 3.15 µM (inactive) | 6.59 µM (inactive) | 2.02 µM (inactive) | 11.9 µM (inactive) | 1.86 µM (inactive) | 12.8 µM (inactive) | 15.8 | 6.27 µM (inactive) |
| O=C(CNc1ccc([N+](=O)[O-])cc1)Nn1c(-c2ccccc2)nc2ccccc2c1=O | 3.03 µM (inactive) | 2.15 µM (inactive) | 1.04 µM (active) | 0.377 µM (active) | 5.73 µM (inactive) | 3.73 µM (inactive) | 13.4 µM (inactive) | 3.07 µM (inactive) | 4.23 µM (inactive) | 11.2 µM (inactive) | 2.24 µM (inactive) | 2.85 µM (inactive) | 0.841 µM (active) | 1.32 µM (inactive) | 2.03 µM (inactive) | 6.93 µM (inactive) | 0.811 µM (active) | 4.24 µM (inactive) | 2.93 | 3.81 µM (inactive) |
| O=C(CN1CCN(c2ccccn2)CC1)N1CCCn2c1nc1ccccc1c2=O | > 100 µM (inactive) | > 100 µM (inactive) | > 100 µM (inactive) | > 100 µM (inactive) | > 100 µM (inactive) | > 100 µM (inactive) | > 100 µM (inactive) | > 100 µM (inactive) | > 100 µM (inactive) | > 100 µM (inactive) | > 100 µM (inactive) | > 100 µM (inactive) | > 100 µM (inactive) | > 100 µM (inactive) | > 100 µM (inactive) | > 100 µM (inactive) | > 100 µM (inactive) | > 100 µM (inactive) | > 100 | > 100 µM (inactive) |
